Assay [1] has as its target T1, human MOR (Homo sapiens, UniProt P35372).
T1 construct: FLAG (N); expressed in transfected cells; host or cells: HEK 293
Type of assay: biochemical.

Assay [2] has as its system morphine-induced antinociception. In words: antagonism of morphine antinociception, 55° C. warm-water tail flick assay. Type of assay: in vivo, mice. To be noted: for blockade of antinociceptive actions of morphine: 10 mg/kg i.p., morphine 20 nmol i.c.v. (A90), 55° C. tail-flick; for ID50 value against morphine-induced antinociception: morphine 20 nmol i.c.v.
Assay [3] concerns acute mouse model of morphine dependence. Briefly: withdrawal jumping in acute mouse model of morphine dependence. In kind it is in vivo, mice. To be noted: 10 mg/kg i.p.; for withdrawal jumping: mice pretreated once with morphine 100 mg/kg s.c. -4 hr, 15 minutes observation; for reduction of jumping versus parent compound: acute morphine dependence.
Assay [4] has as its system chronic mouse model of morphine dependence. Briefly: withdrawal jumping in chronic mouse model of morphine dependence (morphine pellet implantation). Type of assay: in vivo, mice. The note with it: for dose needed to elicit 100 jumps/mouse / plateau of withdrawal jumping: i.p.
The target of assay [5] is T2, δ opioid receptor (Mus musculus, UniProt P32300).
T2 construct: expressed in transfected cells; host or cells: HEK 293
In words: 3H-naloxone equilibrium binding to DOR. To be noted: 3H-naloxone 2 nM tracer, mean of triplicate ± SD.

The target of assay [6] is T3, μ opioid receptor (Homo sapiens, UniProt P35372).
T3 construct: FLAG (N); expressed in transfected cells
In kind it is binding.

Assay [7] concerns the target T1, human MOR. In kind it is cell-based.
The subject of assay [8] is drug-dependent mice. To be noted: cited from earlier work.
In assay [9] the target is DOR (Rattus norvegicus, UniProt P33533). The note with it: cited from earlier work.
In assay [10] the test system is SH-SY5Y cells. To be noted: cited from earlier work.

Entries after “also recorded” stand apart in the source; their conditions may differ.

Data on 14 molecules can be found in patent US6713488B2 (priority 2000, dated 2004).

T3 sequence (P35372 whole entry): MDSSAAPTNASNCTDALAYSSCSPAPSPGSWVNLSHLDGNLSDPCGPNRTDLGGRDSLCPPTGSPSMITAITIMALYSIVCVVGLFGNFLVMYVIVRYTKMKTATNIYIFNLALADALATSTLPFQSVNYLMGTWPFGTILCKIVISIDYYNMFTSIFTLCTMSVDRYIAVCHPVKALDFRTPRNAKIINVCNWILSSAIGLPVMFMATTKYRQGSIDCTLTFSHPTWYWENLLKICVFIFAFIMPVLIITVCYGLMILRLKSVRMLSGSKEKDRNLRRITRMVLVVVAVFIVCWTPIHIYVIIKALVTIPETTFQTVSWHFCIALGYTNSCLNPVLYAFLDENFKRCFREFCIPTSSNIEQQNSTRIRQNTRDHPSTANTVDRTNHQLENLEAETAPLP
T1 sequence (P35372 whole entry): as above
T2 sequence (P32300 whole entry): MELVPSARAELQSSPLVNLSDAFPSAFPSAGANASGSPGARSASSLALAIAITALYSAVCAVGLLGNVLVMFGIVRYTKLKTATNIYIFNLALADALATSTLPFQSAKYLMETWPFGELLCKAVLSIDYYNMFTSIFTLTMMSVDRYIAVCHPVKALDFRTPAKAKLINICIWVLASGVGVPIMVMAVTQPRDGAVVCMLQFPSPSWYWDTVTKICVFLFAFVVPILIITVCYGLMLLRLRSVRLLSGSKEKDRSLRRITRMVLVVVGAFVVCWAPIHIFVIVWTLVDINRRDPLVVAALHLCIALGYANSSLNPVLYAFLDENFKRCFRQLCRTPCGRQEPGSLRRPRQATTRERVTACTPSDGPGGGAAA
Sequence of DOR (P33533 whole entry): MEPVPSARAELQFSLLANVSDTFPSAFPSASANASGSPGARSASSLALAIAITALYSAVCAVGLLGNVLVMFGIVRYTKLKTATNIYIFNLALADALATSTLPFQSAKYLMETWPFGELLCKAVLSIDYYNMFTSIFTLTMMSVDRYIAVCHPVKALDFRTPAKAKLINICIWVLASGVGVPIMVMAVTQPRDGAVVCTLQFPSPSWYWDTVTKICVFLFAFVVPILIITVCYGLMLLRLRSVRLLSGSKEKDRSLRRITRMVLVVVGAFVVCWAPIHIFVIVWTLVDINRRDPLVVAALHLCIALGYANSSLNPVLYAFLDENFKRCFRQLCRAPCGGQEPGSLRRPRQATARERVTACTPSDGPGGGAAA

Turning to `CC(=O)N[C@@H]1CC[C@@]2(O)[C@H]3Cc4ccc(O)c5c4[C@@]2(CCN3CC2CC2)[C@@H]1O5` [6β-naltrexamide], the “effect on basal 35S-GTPγS binding activity” value in [1] is recorded as “no significant effect”. In addition, the “blockade of antinociceptive actions of morphine” value (from here on “blockade … of morphine”) in assay [2] was “effect similar to 6β-naltrexamine”. The withdrawal jumping result in assay [3] is “no withdrawal jumping”. The “potency in eliciting withdrawal jumping (in words)” value in assay [4] was “low potency”.

In assay [5], `Oc1ccc2c3c1O[C@H]1[C@H](O)CC[C@@]4(O)[C@@H](C2)N(CC2CC2)CC[C@]314` [6α-Naltrexol, 6α-naltrexol] registered a Ki of 2.4 ± 0.1 nM. Moreover, the “blockade … of morphine” value in assay [2] is reported as “blocked”. The “reduction of jumping versus parent compound” value in assay [3] is listed as “approximately 50%”.

As for `N[C@@H]1CC[C@@]2(O)[C@H]3Cc4ccc(O)c5c4[C@@]2(CCN3CC2CC2)[C@H]1O5` [6β-Naltrexamine, 6β-naltrexamine], the Ki in [5] was 2.3 ± 0.09 nM; in assay [6], 0.63 ± 0.05 nM. The “blockade … of morphine” value in assay [2] is “only partial blockade”. For the same molecule, in assay [3], the withdrawal jumping entry is listed as “no withdrawal jumping”.

For `C=CCN1CC[C@]23c4c5ccc(O)c4O[C@H]2[C@@H](O)CC[C@@]3(O)[C@H]1C5` [6α-Naloxol, 6α-naloxol], in [1], the “blockade of inverse-agonistic effects of β-CNA” value is reported as “blocked” and the “effect on basal 35S-GTPγS binding activity” value is given as “no significant effect”. This molecule returned a Ki in assay [5] of 2.1 ± 0.2 nM. Further, the “effect on forskolin stimulated cAMP levels” value in assay [7] is recorded as “no effect”. The “blockade … of morphine” value in [2] is “blocked”. Also, the inhibitory constant (Ki) in assay [6] is 0.63 ± 0.04 nM. Moreover, the “reduction of jumping versus parent compound” value in assay [3] is recorded as “approximately 50%”.

On to “D-Phe-Cys-Tyr-D-Trp-Arg-Thr-Pen-Thr-Nh2 [CTAP]”, for which the “withdrawal elicited compared with naloxone” value in assay [8] is on record as “significantly less withdrawal than naloxone”.

Take `O=C(/C=C/c1ccc(Cl)cc1)N[C@@]12CCC(=O)[C@@H]3Oc4c(O)ccc5c4[C@@]31CCN(CC1CC1)[C@@H]2C5` [C-CAM, clocinnamox, reference compound]: the “effect on basal 35S-GTPγS binding activity” value in [1] is listed as “decreased”. Further, the “intrinsic activity at DOR” value in assay [9] was “inverse agonists”. The “effect on forskolin stimulated cAMP levels” value in [7] is recorded as “increased”.

Consider `C=CCN1CC[C@]23c4c5ccc(O)c4O[C@H]2[C@H](O)CC[C@@]3(O)[C@H]1C5` [6β-Naloxol, 6β-naloxol], for which, in assay [1], the “effect on basal 35S-GTPγS binding activity” value is given as “no significant effect”. Further, the values for the Ki in [5] and in [6] were 2.3 ± 0.05 nM and 1.1 ± 0.02 nM, respectively. For the same molecule, the “effect on forskolin stimulated cAMP levels” value in assay [7] is listed as “no effect”. The “blockade … of morphine” value in [2] is “only partial blockade”. In assay [3], the withdrawal jumping entry was “no withdrawal jumping”.

Consider `O=C1CC[C@@]2(O)[C@H]3Cc4ccc(O)c5c4[C@@]2(CCN3CC2CC2)[C@H]1O5` [Naltrexone, naltrexone, reference compound], for which, in assay [2], the “blockade … of morphine” value is recorded as “blocked”. Further, the “ID50 value against morphine-induced antinociception” value (“ID50 value” for short) in assay [2] (antagonist i.c.v.) is listed as 0.26 nmol; in assay [2] (antagonist i.p.) it was 0.22 mg/kg. Further, the withdrawal jumping result in [3] is listed as “aversive effects (withdrawal jumping); also recorded: precipitated robust withdrawal jumping”. In addition, the “dose needed to elicit 100 jumps/mouse” value in assay [4] is recorded as “approximately 0.1 mg/kg”. Moreover, the “plateau of withdrawal jumping” value in assay [4] is listed as “approximately 200 jumps/mouse”.

For `COC(=O)C=CC(=O)NC1CCC2(O)C3Cc4ccc(O)c5c4C2(CCN3CC2CC2)C1O5.Cl` (stereo not drawn) [β-FNA, β-funaltrexamine HCl, reference compound], in [1], the “effect on basal 35S-GTPγS binding activity” value is “no significant effect”.

Consider `N[C@H]1CC[C@@]2(O)[C@H]3Cc4ccc(O)c5c4[C@@]2(CCN3CC2CC2)[C@H]1O5` [6α-naltrexamine], for which, in [1], the “effect on basal 35S-GTPγS binding activity” value is on record as “no significant effect”.

`Oc1ccc2c3c1O[C@H]1[C@H](O)CC[C@@]4(O)[C@@H](C2)N(CC2CC2)CC[C@]314` [6β-Naltrexol, 6β-naltrexol] gave an inhibition constant (Ki) in assay [5] of 2.1 ± 0.01 nM. In addition, the “ID50 value” value in assay [2] (antagonist i.c.v.) is listed as 2.3 nmol; in [2] (antagonist i.p.), 1.0 mg/kg. Also, the withdrawal jumping result in assay [3] was “no withdrawal jumping”. Also, in assay [4], the “dose needed to elicit 100 jumps/mouse” value was 10 mg/kg.

Regarding `C=C1CC[C@@]2(O)[C@H]3Cc4ccc(O)c5c4[C@@]2(CCN3CC2CC2)[C@H]1O5` [nalmefene, reference compound], the “effect on basal 35S-GTPγS binding activity” value in assay [1] is reported as “decreased”.

Consider `C=CCN1CC[C@]23c4c5ccc(O)c4O[C@H]2C(=O)CC[C@@]3(O)[C@H]1C5` [Naloxone, naloxone, reference compound], for which the “blockade … of morphine” value in assay [2] is “blocked”. The “ID50 value” value in assay [2] (antagonist i.c.v.) is 3.4 nmol; in assay [2] (antagonist i.p.), 1.1 mg/kg. Besides, the “effect in morphine pretreated SH-SY5Y cells” value in assay [10] (morphine pretreated) was “inverse agonist”. For the same molecule, the “effect in untreated SH-SY5Y cells” value in [10] (untreated cells) was “little effect”. Also, in assay [3], the withdrawal jumping result is “aversive effects (withdrawal jumping); also recorded: precipitated robust withdrawal jumping”. Besides, the “dose needed to elicit 100 jumps/mouse” value in [4] is about 0.3 mg/kg. Besides, in assay [4], the “plateau of withdrawal jumping” value was “approximately 200 jumps/mouse”.

In the case of `O=C1/C(=C/c2ccccc2)C[C@@]2(O)[C@H]3Cc4ccc(O)c5c4[C@@]2(CCN3CC2CC2)[C@H]1O5` [BNTX, 7-benzylidene-7-dehydronaltrexone, reference compound], in assay [1], the “effect on basal 35S-GTPγS binding activity” value was “decreased”. Further, in assay [9], the “intrinsic activity at DOR” value is “inverse agonists”. The “effect on forskolin stimulated cAMP levels” value in assay [7] is given as “increased”.

The term Ki denotes the equilibrium dissociation constant of an inhibitor or competing ligand from its target.
